In patent publication US5464739A, “Composition method for determining the presence of leukocyte cells, esterase or protease in a test sample” (Bayer Corporation, priority 1994, dated 1995):

Tests used:
[1] = target: T1, human leukocyte elastase (HLE) (Homo sapiens, UniProt P08246); assay: Dry phase test strip assay of chromogenic substrates for HLE (reflectance at 557 nm, K/S); assay type: biochemical; conditions: for K/S: response at 120 seconds; for Change in K/S: 120 seconds; for Response to HLE / hydrolysis by HLE, in words: test strip, NDNSA
T1 sequence (P08246 30-247): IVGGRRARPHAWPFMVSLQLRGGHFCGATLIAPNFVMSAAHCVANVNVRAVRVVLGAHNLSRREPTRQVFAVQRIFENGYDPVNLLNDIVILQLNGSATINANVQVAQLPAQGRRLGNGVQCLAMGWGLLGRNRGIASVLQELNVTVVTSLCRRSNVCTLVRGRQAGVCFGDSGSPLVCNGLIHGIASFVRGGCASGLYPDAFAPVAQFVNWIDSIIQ
Experimental: In accordance with the method of the present invention, a test device was prepared which was sensitive to the presence of leukocyte esterase. An aqueous solution including 0.8M borate-sodium hydroxide buffer (pH 8.8) and 1% by weight of polyvinylpyrrolidone (PVP K-60 available from ISP Corp., Wayne, N.J.) first was prepared. A 4 inch wide strip of WHATMAN 3MM filter paper, available commercially from Whatman, Ltd., Maidenhead, Kent, U.K., then was impregnated with the aqueous solution. The impregnated filter paper strip next was dried in an Air Foil paper dryer, available from Thermoelectron, Kaukauna, Wis., at 79° C. to 121° C. for about 5 to 6 minutes.
The dried, impregnated filter paper strip then was impregnated a second time by immersion into an acetone solution containing 1.1 mM of a lactate ester of structural formula […], 0.7 mM 4-diazo-3-hydroxy-7-nitro-1-naphthylsulfonate (i.e., the compound of structural formula (XX), also named 6-nitro-1,2-naphthoquinone diazide), 1.5% (v/v) 1-decanol and 3% (v/v) dimethylsulfoxide. After the second impregnation, the filter paper strip was dried at 60° C. for about 5 to 6 minutes to provide an off-white filter paper strip. The dried, twice-impregnated filter paper pad is secured to an opaque or transparent hydrophobic plastic handle with double-sided adhesive tape. The dried and twice-impregnated filter paper strip was next cut to an appropriate size for a test strip assay, such as a pad having dimensions of about 0.2 in (inch) (0.5 cm) by about 0.2 in (0.5 cm).
Individual test strips each incorporating one chromogenic lactate ester having a structural formula (X) through (XIV) and a diazonium salt coupling agent were quickly immersed into standardized solutions containing 0, 19 or 48 ng/mL HLE, then removed. Approximately two minutes after contacting a standardized HLE solution, the reflectance of the test pad of the test strip was measured at 557 nm (nanometers) on a CLINITEK® 10 clinical reflectance meter, available from Miles, Inc., Elkhart, Ind.
The reflectance, R, as taken from the reflectance scale of zero to one, was incorporated into the Kubelka-Munk function:
wherein K is the absorption coefficient, S is the scattering coefficient and R is reflectance. The reflectance values determined at 557 nm were used to calculate the K/S values. The K/S values are proportional to test strip color, therefore the greater the K/S value, the greater the degree and intensity of the color transition of the test strip and the greater the concentration of HLE in the test strip.
Dry phase test strips incorporating the lactate ester of structural formula (X), and prepared as discussed above, were compared to dry phase test strips incorporating the corresponding alanine derivative (I) for an ability to detect HLE in urine. A comparison also was made between the diazonium salt coupling agents DNSA (XX) and NDNSA (XXI). The test strips were otherwise identical. The results tabulated below were obtained after quickly immersing the individual reagent strips into standardized HLE solutions. Two minutes after immersion, the test strips were examined for a chromogenic response as described above.

[2] = target: T1, human leukocyte elastase (HLE); assay: as above; assay type: biochemical; conditions: for ΔK/S (557 mm) at 120 seconds: NDNSA (XXI); for Response between 200 and 500 ng/mL HLE, in words: test strip, NDNSA; for Response between 200 and 500 ng/mL HLE, in words / Change in K/S: 120 seconds; for K/S: response at 120 seconds; for Change in K/S: between 0 and 19 ng/mL HLE
[3] = HLE 0 ng/mL, diazonium salt NDNSA, 557 nm
[4] = HLE 19 ng/mL, diazonium salt NDNSA, 557 nm
[5] = HLE 48 ng/mL, diazonium salt NDNSA, 557 nm
[6] = between 0 and 19 ng/mL HLE, diazonium salt NDNSA
[7] = between 0 and 48 ng/mL HLE, diazonium salt NDNSA
[8] = change between 0 and 5 ng/mL HLE
[9] = change between 0 and 10 ng/mL HLE
[10] = change between 0 and 20 ng/mL HLE
[11] = change between 0 and 100 ng/mL HLE
[12] = change between 0 and 200 ng/mL HLE
[13] = change between 0 and 500 ng/mL HLE
[14] = Example 10, HLE 0 ng/mL, diazonium salt not given (as in Example 6)
[15] = Example 10, HLE 19 ng/mL, diazonium salt not given (as in Example 6)
[16] = Example 10, diazonium salt not stated

Row | K/S [1, 3] | K/S [1, 4] | K/S [1, 5] | Change in K/S [1, 6] | Change in K/S [1, 7] | SMILES | other results
1 | 0.074 | 0.435 | 0.976 | 0.361 | 0.902 | COC(=O)CCS(=O)(=O)N[C@@H](C)C(=O)Oc1c[nH]c(-c2ccccc2)c1 | 
2 | 0.046 | 0.348 |  | 0.302 |  | Cc1ccc(S(=O)(=O)O[C@@H](C)C(=O)Oc2c[nH]c(-c3ccccc3)c2)cc1 [Tosyl-(L)--Lac--OPP, 3-(O-tosyl-(L)-lactoyl)-5-phenylpyrrole] | Response to HLE / hydrolysis by HLE, in words [1]: readily hydrolyzed by the enzyme HLE
3 | 0.038 | 0.039 |  | 0.001 |  | C[C@H](NC(=O)c1ccccc1)C(=O)Oc1c[nH]c(-c2ccccc2)c1 [Ph--CO--R--OPP, R = Alanine] | 
4 | 0.050 | 0.363 | 0.881 | 0.313 | 0.831 | CCCS(=O)(=O)N[C@@H](C)C(=O)Oc1c[nH]c(-c2ccccc2)c1 [n-Pr--SO2 --Ala--OPP] | ΔK/S (557 mm) at 120 seconds [2, 8]: 0.065; ΔK/S (557 mm) at 120 seconds [2, 9]: 0.165; ΔK/S (557 mm) at 120 seconds [2, 10]: 0.353; ΔK/S (557 mm) at 120 seconds [2, 11]: 1.474; ΔK/S (557 mm) at 120 seconds [2, 12]: 1.797; ΔK/S (557 mm) at 120 seconds [2, 13]: 1.628; Response between 200 and 500 ng/mL HLE, in words [2]: no difference in response
5 | 0.177 | 0.514 | 0.916 | 0.337 | 0.739 | COC(=O)CCS(=O)(=O)O[C@@H](C)C(=O)Oc1c[nH]c(-c2ccccc2)c1 [MeOSucc--SO2 -(L)-Lac--OPP] | Response to HLE / hydrolysis by HLE, in words [1]: sufficient to assay for HLE

More lines, now with the values behind:

Row | SMILES | K/S [1, 3] | K/S [1, 4] | K/S [1, 5] | Change in K/S [1, 6] | Change in K/S [1, 7] | other results
6 | C[C@H](NS(=O)(=O)c1cccs1)C(=O)Oc1c[nH]c(-c2ccccc2)c1 [2-Thiophene-SO2 --R--OPP, R = Alanine] |  |  |  |  |  | K/S [1, 14]: 0.050; K/S [2, 15]: 0.224; Change in K/S [2, 16]: 0.174
7 | CCCS(=O)(=O)O[C@@H](C)C(=O)Oc1c[nH]c(-c2ccccc2)c1 [n-Pr--SO2 --Lac--OPP, nPr--SO2 -(L)-Lac--OPP] | 0.100 | 0.498 | 1.049 | 0.398 | 0.949 | ΔK/S (557 mm) at 120 seconds [2, 8]: 0.108; ΔK/S (557 mm) at 120 seconds [2, 9]: 0.257; ΔK/S (557 mm) at 120 seconds [2, 10]: 0.533; ΔK/S (557 mm) at 120 seconds [2, 11]: 1.462; ΔK/S (557 mm) at 120 seconds [2, 12]: 1.693; ΔK/S (557 mm) at 120 seconds [2, 13]: 1.915; Response between 200 and 500 ng/mL HLE, in words [2]: continues to increase
8 | C[C@H](OS(=O)(=O)c1cccs1)C(=O)Oc1c[nH]c(-c2ccccc2)c1 [2-Thiophene-SO2-(L)-Lac-OPP] |  |  |  |  |  | K/S [1, 14]: 0.03; K/S [2, 15]: 0.385; Change in K/S [2, 16]: 0.332
9 | Cc1ccc(S(=O)(=O)N[C@@H](C)C(=O)Oc2c[nH]c(-c3ccccc3)c2)cc1 [Tosyl--Ala--OPP, 3-hydroxy-5-phenyl-pyrrole-N-tosyl-L-alanine ester] | 0.044 | 0.308 |  | 0.264 |  | K/S ([2]; HLE 0 ng/mL, diazonium salt DNSA, 557 nm): 0.021; K/S ([2]; HLE 19 ng/mL, diazonium salt DNSA, 557 nm): 0.146; Change in K/S ([2]; diazonium salt DNSA): 0.125
10 | C[C@H](OC(=O)c1ccccc1)C(=O)Oc1c[nH]c(-c2ccccc2)c1 [Ph--CO--R--OPP, R = Lactate (XI), PhCO-(L)-Lac--OPP] | 0.041 | 0.106 |  | 0.065 |  | 
